Measurements as given in patent US5856347A, “Antibacterial preparation or bactericide comprising 2-aminothiazole derivative and/or salt thereof” (Hisamitsu Pharmaceutical Co., Inc., priority 1994, dated 1999).

Assays:
Format in all cases: cell-based
[1] = system: Staphylococcus epidermidis; experiment: Acquisition of tolerance in Staphylococcus epidermidis (serial passages)
Experimental: (§1) Acquisition of Tolerance in Staphylococcus aureus and Staphylococcus epidermidis
(§2) One platinum loop of each test strain on a slant culture medium was inoculated into 10 ml of a growing medium (Trypto-Soya Broth manufactured by Nussui Pharmaceutical Co., Ltd.) and cultured at 37° C. for 18 to 20 hr. The thus obtained cultures were each diluted to obtain suspensions of about 10^8 cells/ml which were later used as a bacteria suspension for inoculation.
(§3) About 10 mg of compound No. 9 were weighed out and dissolved in such an amount of DMSO as to obtain a solution having a concentration of 12.8 mg/ml, after which the solution so obtained was subjected to stepwise two-fold dilutions with DMSO (12.8 to 0.1 mg/ml).
(§4) Separately, about 400 mg of Gentamicin sulfate (GM) were weighed and dissolved in distilled water to obtain a solution having a concentration of 409.6 mg/ml, after which the solution so obtained was subjected to stepwise two-fold dilutions with distilled water to prepare control medicinal solutions for comparison (409.6 to 0.1 mg/ml).
(§5) Each of the sample solutions thus obtained by the stepwise dilutions was added to a liquid medium (Trypto-Soya Broth manufactured by Nussui Pharmaceutical Co., Ltd.) in an amount of 0.01 volume thereof.
(§6) Each of the bacteria suspensions for inoculation was added to each of the sample-containing liquid media so prepared in an amount of 0.01. volume (about 10^6 cells/ml) of the liquid medium, and the bacteria were cultured at 37° C. for 2 to 4 days. Thereafter, the growth of bacteria was observed.

[2] = system: Staphylococcus aureus; experiment: Acquisition of tolerance in Staphylococcus aureus (serial passages)
Experimental: as §1, §2, §3, §4, §5, §6

[3] = system: Staphylococcus epidermidis tolerant to GM; experiment: Antibacterial activity against GM-tolerant Staphylococcus epidermidis; conditions: S. epidermidis tolerant to GM
Experimental: (§7) Antibacterial Activity Against GM-Sensitive and Tolerant Strains of Staphylococcus aureus and Staphylococcus epidermidis
as §2, with “10^7” for “10^8”
(§8) About 10 mg of compound No. 9 were weighed out and dissolved in such an amount of DMSO as to obtain a solution having a concentration of 10 mg/ml. Separately, about 400 mg of Gentamicin sulfate (GM) were weighed out and dissolved in distilled water to obtain a solution having a concentration of 409.6 mg/ml.
(§9) Each of the sample solutions thus prepared was added to a liquid medium (broth for determination of sensitivity, manufactured by Nussui Pharmaceutical Co., Ltd.) to obtain a liquid medium containing compound No. 9 in a concentration of 128 μg/ml or GM in a concentration of 4096 μg/ml. Further, each sample-containing medium so obtained was subjected to stepwise two-fold dilutions on a microplate with wells each containing […] of the above medium (compound No. 9: 128 to 1 μg/ml, GM: 4096 to 1 μg/ml). […]

[4] = system: Staphylococcus aureus tolerant to GM; experiment: Antibacterial activity against GM-tolerant Staphylococcus aureus; conditions: S. aureus tolerant to GM
Experimental: as §7
as §2, with “10^7” for “10^8”
as §8, §9

[5] = system: Staphylococcus epidermidis: IFO 12993; experiment: Antibacterial activity against Staphylococcus epidermidis: IFO 12993 (MIC); conditions: Staphylococcus epidermidis IFO 12993, 37° C., 18 to 20 hr
Experimental: (§10) Antibacterial Activity Against Gram-positive Bacteria
(§11) One platinum loop (oese) of a test strain on a slant culture medium was inoculated into 10 ml of each growing medium (for aerobic bacteria: Trypto-Soya Broth manufactured by Nussui Pharmaceutical Co., Ltd., for anaerobic bacteria: GAM Broth manufactured by Nussui Pharmaceutical Co., Ltd.) and cultured at. 37° C. for 18 to 20 hr. The cultures thus obtained were each diluted to obtain suspensions of about 10^7 cells/ml which were later used as a bacteria suspension for inoculation.
(§12) About 10 mg of each sample were weighed out and dissolved in such an amount of DMSO (dimethylsulfoxide) as to obtain sample solutions having a concentration of 10 mg/ml.
(§13) The sample solutions thus prepared were each added to each liquid medium (for aerobic bacteria: broth for determination of sensitivity, manufactured by Nussui Pharmaceutical Co., Ltd., for anaerobic bacteria: GAM Broth manufactured by Nussui Pharmaceutical Co., Ltd.) to obtain sample-containing medium solutions having a concentration of 128 μg/ml. Further, the thus obtained solutions were each subjected to progressive or stepwise two-fold dilutions on a microplate with wells each containing […] of the above medium (until various concentrations in a range from 128 down to 0.063 μg/ml were obtained). […]

[6] = system: Streptococcus pyogenes: IID 698; experiment: Antibacterial activity against Streptococcus pyogenes: IID 698 (MIC); conditions: Streptococcus pyogenes IID 698, 37° C., 18 to 20 hr
Experimental: as §10, §11, §12, §13

[7] = system: Bacillus subtilis: IFO 3134; experiment: Antibacterial activity against Bacillus subtilis: IFO 3134 (MIC); conditions: Bacillus subtilis IFO 3134, 37° C., 18 to 20 hr
Experimental: as §10, §11, §12, §13

[8] = system: Staphylococcus aureus: IFO 13276; experiment: Antibacterial activity against Staphylococcus aureus: IFO 13276 (MIC, liquid dilution); conditions: S. aureus IFO 13276, 37° C., 18 to 20 hr (Table 2)
Experimental: as §10, §11, §12, §13

[9] = system: Streptococcus agalactiae: IID 1624; experiment: Antibacterial activity against Streptococcus agalactiae: IID 1624 (MIC); conditions: Streptococcus agalactiae IID 1624, 37° C., 18 to 20 hr
Experimental: as §10, §11, §12, §13

[10] = system: Propionibacterium acnes: Clinical isolated No. 3; experiment: Antibacterial activity against Propionibacterium acnes: Clinical isolated No. 3 (MIC); conditions: Propionibacterium acnes clinical isolated No. 3, GAM Broth, 37° C., 18 to 20 hr
Experimental: as §10, §11, §12, §13

[11] = system: Staphylococcus epidermidis: IFO 12993; experiment: Bactericidal activity against Staphylococcus epidermidis: IFO 12993 (MCC); conditions: S. epidermidis IFO 12993, 37° C., 18 to 20 hr, bactericidal (Table 9)
Experimental: (§14) Bactericidal Activity Against Gram-Positive Bacteria
(§15) One platinum loop of each test strain on a slant culture medium was inoculated into 10 ml of each growing medium (for aerobic bacteria: Trypto-Soya Broth manufactured by Nussui Pharmaceutical Co., Ltd., for anaerobic bacteria: GAM Broth manufactured by Nussui Pharmaceutical Co., Ltd.) and cultured at 37° C. for 18 to 20 hr. The thus obtained cultures were each diluted to obtain suspensions of about 10^7 cells/ml which were later used as a bacteria suspension for inoculation.
(§16) About 10 mg of each sample were weighed out and dissolved in such an amount of DMSO (dimethylsulfoxide) as to obtain solutions having a concentration of 10 mg/ml.
(§17) The sample solutions thus prepared were each added to each liquid medium (for aerobic bacteria: broth for determination of sensitivity, manufactured by Nussui Pharmaceutical Co., Ltd., for anaerobic bacteria: GAM Broth manufactured by Nussui Pharmaceutical Co., Ltd.) to obtain sample-containing medium solutions having a concentration of 128 μg/ml. […]
(§18) 5 μl of each bacteria suspension for inoculation were placed in each of the sample-containing liquid media so prepared, and the bacteria were cultured at 37° C. for 18 to 20 hr. […] The minimum concentrations of the samples, which have been judged to kill bacteria, are expressed as MCC (Minimum Cidal Concentration) in μg/ml. […]

[12] = system: Staphylococcus aureus: IFO 13276; experiment: Bactericidal activity against Staphylococcus aureus: IFO 13276 (MCC); conditions: S. aureus IFO 13276, 37° C., 18 to 20 hr, bactericidal (Table 8)
Experimental: as §14, §15, §16, §17, §18

[13] = system: Staphylococcus epidermidis sensitive to GM; experiment: Antibacterial activity against GM-sensitive Staphylococcus epidermidis; conditions: S. epidermidis sensitive to GM, 37° C., 4 days
Experimental: as §7
as §2, with “10^7” for “10^8”
as §8, §9

[14] = system: Staphylococcus aureus sensitive to GM; experiment: Antibacterial activity against GM-sensitive Staphylococcus aureus; conditions: S. aureus sensitive to GM, 37° C., 4 days
Experimental: as §7
as §2, with “10^7” for “10^8”
as §8, §9

[15] = system: Propionibacterium acnes: Clinical isolated No. 3; experiment: Bactericidal activity against Propionibacterium acnes: Clinical isolated No. 3 (MCC); conditions: P. acnes clinical isolated No. 3, 37° C., 18 to 20 hr, bactericidal (Table 9)
Experimental: as §14, §15, §16, §17, §18

[16] = system: Escherichia coli: IFO 3972; experiment: Antibacterial activity against Gram-negative bacteria, Escherichia coli: IFO 3972 (MIC)
Experimental: Antibacterial Activity Against Gram-Negative Bacteria The procedure was performed in the same manner as Experiment Example 1.

COc1ccc(-c2nc(NS(=O)(=O)C(F)(F)F)sc2-c2ccccc2)cc1 [compound 9]
acquisition of tolerance ([1]; 18 passages): did not induce the tolerance until 18 passages | increase in MIC due to passages ([1]; 18 passages): neither of the strains caused a significant increase in MIC | acquisition of tolerance ([2]; 10 passages): did not induce bacterial tolerance until 10 passages | increase in MIC due to passages ([2]; 10 passages): neither of the strains caused a significant increase in MIC | antibacterial activity and bactericidal activity compared with GM-sensitive strains [3]: equally powerful to those against the strains sensitive to Gentamicin sulfate (GM) | antibacterial activity and bactericidal activity compared with GM-sensitive strains [4]: equally powerful to those against the strains sensitive to Gentamicin sulfate (GM)

Gentamicin sulfate [GM]
MIC (Minimum Inhibitory Concentration) [5]: 0.5 µg/mL | MIC (Minimum Inhibitory Concentration) [6]: 2 µg/mL | MIC (Minimum Inhibitory Concentration) [7]: 0.25 µg/mL | MIC (Minimum Inhibitory Concentration) [8]: 2 µg/mL | MIC (Minimum Inhibitory Concentration) [9]: 16 µg/mL | acquisition of tolerance ([1]; 18 passages): highly induced the tolerance | MIC after passages ([1]; 18 passages in medium containing GM): about 1000 μg/ml | acquisition of tolerance ([2]; 10 passages): highly induced the tolerance | MIC after passages ([2]; 10 passages in medium containing GM): about 1000 μg/ml | MIC (Minimum Inhibitory Concentration) [10]: 32 µg/mL | MCC (Minimum Cidal Concentration), column head prints MIC [11]: 64 µg/mL | MCC (Minimum Cidal Concentration), column head prints MIC [12]: 128 µg/mL | MIC (Minimum Inhibitory Concentration) [13]: 0.5 µg/mL | MIC (Minimum Inhibitory Concentration) ([3]; 37° C., 4 days): 1024 µg/mL | MIC (Minimum Inhibitory Concentration) ([4]; 37° C., 4 days): 2048 µg/mL | MIC (Minimum Inhibitory Concentration) [14]: 2 µg/mL | MCC (Minimum Cidal Concentration), column head prints MIC [15]: 64 µg/mL | MIC (Minimum Inhibitory Concentration) [16]: 2 µg/mL
